From US20160066572A1, “METHOD OF SANITIZING EDIBLE SEEDS, PARTICULARLY MUCILAGE PRODUCING SEEDS” (AGRI-NEO INC., priority 2013, published 2016)

Tests used:
chia and flax seeds = test: Mucilage release from mucilaginous seeds after treatment; conditions: alcohol in the aqueous sanitizing composition
Method: A minimum of 4 ml of the treatment solution was sprayed, using a handheld atomizing sprayer while mixing, on 100 gram samples of chia and flax seeds. The samples were allowed to air dry and checked for mucilage.
A minimum of 4 ml of the treatment solution was sprayed, using a handheld atomizing sprayer while mixing, on 100-gram samples of chia and flax seeds. The samples were allowed to air dry and checked for mucilage.

[1] = system: Total count Aerobic bacteria; test: Total aerobic count on seeds, grains and spices sprayed with sanitizing solutions (Example 1); type: cell-based
Method: (§1) Seeds were mechanically cleaned and spread in stainless steel containers. Each 100 grams seeds were sprayed with 4 ml total solutions descried above via conventional trigger vaporizer. This solution is equivalent to 40 L disinfecting solution total sprayed on 1-tonne seeds. Seeds, grains and spices were selected to represent all families and types of seeds, grains and spices. Another criterium was to select seeds and grains contaminated with a high count of total aerobic bacteria, yeast, mold, E. coli, Salmonella sp. and other pathogenic microorganisms.
(§2) Seeds, grains and spices treated were: • Whole dried pea, • Split pea dried, • Pea fiber, • Vanilla, • Chia, • Sprouted flax and chia, • Flax, • Hemp, and • Black pepper seeds

yeast and mold (Y&M) = test: Y&M count on seeds, grains and spices sprayed with sanitizing solutions (Example 1); type: cell-based; conditions: 40 L/tonne; for Y&M, Av: average; for Y&M, n1: replicate n1; for Y&M, n2: replicate n2
Method: as §1, §2

[2] = whole dried pea, 40 L per 1 tonne

CCO [ethanol]
effective amount (concentration) required to suppress mucilage release (chia and flax seeds): about 15 % by volume

CCO [2- Alcohol - ethanol, ethanol]
bactericidal effect (conclusion) ([1]; black pepper, 40 L per 1 tonne): not a strong bactericidal agent
Total count Aerobic CFU/g bacteria, Av ([1]; black pepper, 40 L/tonne, average): Av = 1 million
Total count Aerobic CFU/g bacteria, Av ([1]; chia seeds, 40 L/tonne, average): Av = 510,000 CFU/g
Total count Aerobic CFU/g bacteria, n1 ([1]; chia seeds, 40 L/tonne, replicate n1): n1 = 520,000 CFU/g
Total count Aerobic CFU/g bacteria, n2 ([1]; chia seeds, 40 L/tonne, replicate n2): n2 = 500,000 CFU/g
Total count Aerobic CFU/g bacteria, Av ([1]; flax seeds, 40 L/tonne, average): Av = 2 millions
Total count Aerobic CFU/g bacteria, n1 ([1]; flax seeds, 40 L/tonne, replicate n1): n1 = 1.8 millions
Total count Aerobic CFU/g bacteria, n2 ([1]; flax seeds, 40 L/tonne, replicate n2): n2 = 2.2 millions
bactericidal effect (conclusion) ([1]; hemp, 40 L per 1 tonne): not a strong bactericidal agent
Total count Aerobic CFU/g bacteria, Av ([1]; hemp, 40 L/tonne, average): Av = 1 million
Total count Aerobic CFU/g bacteria, n1 ([1]; hemp, 40 L/tonne, replicate n1): n1 = 800,000 CFU/g
Total count Aerobic CFU/g bacteria, n2 ([1]; hemp, 40 L/tonne, replicate n2): n2 = 1.2 millions
bactericidal effect (conclusion) ([1]; pea fiber, 40 L per 1 tonne): not a strong bactericidal agent
Total count Aerobic CFU/g bacteria, Av ([1]; pea fiber, 40 L/tonne, average): Av = 700,000 CFU/g
Total count Aerobic CFU/g bacteria, n1 ([1]; pea fiber, 40 L/tonne, replicate n1): n1 = 500,000 CFU/g
Total count Aerobic CFU/g bacteria, n2 ([1]; pea fiber, 40 L/tonne, replicate n2): n2 = 900,000 CFU/g
bactericidal effect (conclusion) ([1]; split pea, 40 L per 1 tonne): not a strong bactericidal agent
bactericidal effect (conclusion) ([1]; sprouted flax and chia): bactericidal agent but not very strong
Total count Aerobic CFU/g bacteria, Av ([1]; sprouted flax and chia, 40 L/tonne, average): Av = 600,000 CFU/g
Total count Aerobic CFU/g bacteria, n1 ([1]; sprouted flax and chia, 40 L/tonne, replicate n1): n1 = 550,000 CFU/g
Total count Aerobic CFU/g bacteria, n2 ([1]; sprouted flax and chia, 40 L/tonne, replicate n2): n2 = 650,000 CFU/g
bactericidal effect (conclusion) ([1]; vanilla, 40 L per 1 tonne): not a strong bactericidal agent
Total count Aerobic CFU/g bacteria, Av ([1]; vanilla, 40 L/tonne, average): Av = 1 million
Total count Aerobic CFU/g bacteria, n1 ([1]; vanilla, 40 L/tonne, replicate n1): n1 = 1 million
Total count Aerobic CFU/g bacteria, n2 ([1]; vanilla, 40 L/tonne, replicate n2): n2 = 1 million
bactericidal effect (conclusion) [1, 2]: not a strong bactericidal agent
Total count Aerobic - CFU/g bacteria, Av ([1]; whole dried pea, 40 L/tonne, average): Av = 900,000 CFU/g
Total count Aerobic - CFU/g bacteria, n1 ([1]; whole dried pea, 40 L/tonne, replicate n1): n1 = 800,000 CFU/g
Total count Aerobic - CFU/g bacteria, n2 ([1]; whole dried pea, 40 L/tonne, replicate n2): n2 = 1 million
Total count Aerobic CFU/g bacteria, Av ([1]; whole split pea, 40 L/tonne, average): Av = 700,000 CFU/g
Total count Aerobic CFU/g bacteria, n1 ([1]; whole split pea, 40 L/tonne, replicate n1): n1 = 700,000 CFU/g
Total count Aerobic CFU/g bacteria, n2 ([1]; whole split pea, 40 L/tonne, replicate n2): n2 = 700,000 CFU/g
Y&M, Av (yeast and mold (Y&M); black pepper): Av = 1,000 Y&M CFU/g
Y&M, Av (yeast and mold (Y&M); chia seeds): Av = 10,000 Y&M CFU/g
Y&M, n1 (yeast and mold (Y&M); chia seeds): n1 = 10,000/n2 = 10,000 CFU/g
Y&M, n2 (yeast and mold (Y&M); chia seeds): n1 = 10,000/n2 = 10,000 CFU/g
Y&M, Av (yeast and mold (Y&M); flax seeds): Av = 1,000 Y&M CFU/g
Y&M, n1 (yeast and mold (Y&M); flax seeds): n1 = 1,000/n2 = 1,000 CFU/g
Y&M, n2 (yeast and mold (Y&M); flax seeds): n1 = 1,000/n2 = 1,000 CFU/g
Y&M, Av (yeast and mold (Y&M); hemp): Av = 1,000 Y&M CFU/g
Y&M, n1 (yeast and mold (Y&M); hemp): n1 = 1000/n2 = 1000 CFU/g
Y&M, n2 (yeast and mold (Y&M); hemp): n1 = 1000/n2 = 1000 CFU/g
Y&M, Av (yeast and mold (Y&M); pea fiber): Y&M not detected
Y&M, n1 (yeast and mold (Y&M); pea fiber): n1, n2 not detected
Y&M, n2 (yeast and mold (Y&M); pea fiber): n1, n2 not detected
Y&M, Av (yeast and mold (Y&M); sprouted flax and chia): Av = 1,000 Y&M CFU/g
Y&M, n1 (yeast and mold (Y&M); sprouted flax and chia): n1 = 1,000/n2 = 1,000 CFU/g
Y&M, n2 (yeast and mold (Y&M); sprouted flax and chia): n1 = 1,000/n2 = 1,000 CFU/g
Y&M, Av (yeast and mold (Y&M); vanilla): Av = 1,000 Y&M CFU/g
Y&M, n1 (yeast and mold (Y&M); vanilla): n1 = 1000/n2 = 1000 CFU/g
Y&M, n2 (yeast and mold (Y&M); vanilla): n1 = 1000/n2 = 1000 CFU/g
Y&M, Av (yeast and mold (Y&M); whole dried pea): Y&M not detected
Y&M, n1 (yeast and mold (Y&M); whole dried pea): n1, n2 not detected
Y&M, n2 (yeast and mold (Y&M); whole dried pea): n1, n2 not detected
Y&M, Av (yeast and mold (Y&M); whole split pea): Y&M not detected
Y&M, n1 (yeast and mold (Y&M); whole split pea): n1, n2 not detected
Y&M, n2 (yeast and mold (Y&M); whole split pea): n1, n2 not detected

CC(O)CO (centres unmarked) [propylene glycol]
effective amount (concentration) required to suppress mucilage release (chia and flax seeds): about 13 % by volume

CC(=O)OO [Peracetic acid]
bactericidal effect (conclusion) ([1]; black pepper, 40 L per 1 tonne): strong bactericidal agent
bactericidal effect (conclusion) ([1]; hemp, 40 L per 1 tonne): strong bactericidal agent
bactericidal effect (conclusion) ([1]; pea fiber, 40 L per 1 tonne): strong bactericidal agent
bactericidal effect (conclusion) ([1]; split pea, 40 L per 1 tonne): strong bactericidal agent
bactericidal effect (conclusion) ([1]; vanilla, 40 L per 1 tonne): strong bactericidal agent
bactericidal effect (conclusion) [1, 2]: strong bactericidal agent
